# Results from paper PMC7377239, “Cardiovascular Effects of Polychlorinated Biphenyls and Their Major Metabolites” (Environmental Health Perspectives, 2020).
# Structures can show the parent of a compound that is named as a salt. Where two headings read alike, the source gives them in different places.
# Legend:
# [1] = test system: iCell endothelial cells (human iPSC-derived ECs); experiment: Tube formation (tubulogenesis) assay in iCell endothelial cells, 18 h; format: cell-based; conditions: Homo sapiens, Endothelial cell, iPSC-EC tube formation, 18 hr; for activity at 0.1 µM: 0.10 µM; for minimal effective concentration: top concentration 100.00 µM
# Procedure, shortened: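 Tube formation was measured by calcein AM imaging after overnight compound exposure (37°C, 0.5% DMSO vehicle) of human iPSC-derived ECs, 7,500/well, on reduced-growth-factor Geltrex in starvation medium. Vehicle-normalized data fitted to four-parameter logistic; POD set at one vehicle SD; without response, 100 μM taken as NOAEL.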
# [2] = test system: iCell endothelial cells (human iPSC-derived ECs); experiment: High-content imaging cytotoxicity in iCell endothelial cells, 24 h; format: cell-based; conditions: Homo sapiens, Endothelial cell, iPSC-EC, 24 hr; for viability at 0.1 µM / activity at 0.1 µM: 0.10 µM; for minimal effective concentration: top concentration 100.00 µM
# Procedure, shortened: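 Readouts were vehicle-normalised and fitted to a four-parameter logistic model. POD was set at one SD beyond 0.5% DMSO control means, and 100 µM was assigned when no response was seen. Cells were monolayers of iCell endothelial cells imaged after 24 h compound exposure using nuclear, mitochondrial and calcein dyes.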
# [3] = 0.00 µM control = 100.00, read-out: endo.mtl.18hr
# [4] = 0.00 µM control = 100.00, read-out: endo.tlps.18hr
# [5] = 0.00 µM control = 100.00, read-out: endo.tta.18hr
# [6] = 0.00 µM control = 100.00, read-out: endo.ttl.18hr
# [7] = 0.00 µM control = 100.00, read-out: endo.cyto.24hr
# [8] = 0.00 µM control = 100.00, read-out: endo.mito.24hr
# [9] = 0.00 µM control = 100.00, read-out: endo.mitoint.24hr
# [10] = 0.00 µM control = 100.00, read-out: endo.nma.24hr
# [11] = 0.00 µM control = 100.00, read-out: endo.tc.24hrs
# [12] = read-out: endo.mitoint.24hr POD
smiles,measurement,setting,value
Oc1cc(Cl)c(-c2cc(Cl)ccc2Cl)cc1Cl [4-OH PCB52],activity at 0.01 µM,[1]; [3],114%
same,activity at 0.01 µM,[1]; [4],107%
same,activity at 0.01 µM,[1]; [5],144%
same,activity at 0.01 µM,[1]; [6],144%
same,activity at 0.1 µM,[1]; [3],119%
same,activity at 0.1 µM,[1]; [4],109%
same,activity at 0.1 µM,[1]; [5],116%
same,activity at 0.1 µM,[1]; [6],125%
same,activity at 1 µM,[1]; [3],111%
same,activity at 1 µM,[1]; [4],129%
same,activity at 1 µM,[1]; [5],118%
same,activity at 1 µM,[1]; [6],124%
same,activity at 10 µM,[1]; [3],84.5%
same,activity at 10 µM,[1]; [4],70.9%
same,activity at 10 µM,[1]; [5],86%
same,activity at 10 µM,[1]; [6],85.7%
same,activity at 100 µM,[1]; [3],0%
same,activity at 100 µM,[1]; [4],0%
same,activity at 100 µM,[1]; [5],0%
same,activity at 100 µM,[1]; [6],0%
same,minimal effective concentration,[1]; read-out: endo.mtl.18hr POD,9.52 µM
same,minimal effective concentration,[1]; read-out: endo.tlps.18hr POD,8.32 µM
same,minimal effective concentration,[1]; read-out: endo.tta.18hr POD,15 µM
same,minimal effective concentration,[1]; read-out: endo.ttl.18hr POD,15.2 µM
same,viability at 0.01 µM,[2]; [7],96.8%
same,activity at 0.01 µM,[2]; [8],96.3%
same,activity at 0.01 µM,[2]; [9],90.5%
same,activity at 0.01 µM,[2]; [10],104%
same,viability at 0.01 µM,[2]; [11],96.8%
same,viability at 0.1 µM,[2]; [7],94.9%
same,activity at 0.1 µM,[2]; [8],94.5%
same,activity at 0.1 µM,[2]; [9],89.8%
same,activity at 0.1 µM,[2]; [10],104%
same,viability at 0.1 µM,[2]; [11],94.9%
same,viability at 1 µM,[2]; [7],101%
same,activity at 1 µM,[2]; [8],101%
same,activity at 1 µM,[2]; [9],88.2%
same,activity at 1 µM,[2]; [10],103%
same,viability at 1 µM,[2]; [11],101%
same,viability at 10 µM,[2]; [7],98%
same,activity at 10 µM,[2]; [8],98%
same,activity at 10 µM,[2]; [9],98.3%
same,activity at 10 µM,[2]; [10],103%
same,viability at 10 µM,[2]; [11],98%
same,viability at 100 µM,[2]; [7],42.3%
same,activity at 100 µM,[2]; [8],39.7%
same,activity at 100 µM,[2]; [9],51.4%
same,activity at 100 µM,[2]; [10],89.3%
same,viability at 100 µM,[2]; [11],49.3%
same,minimal effective concentration,[2]; read-out: endo.cyto.24hr POD,13.2 µM
same,minimal effective concentration,[2]; read-out: endo.mito.24hr POD,13.2 µM
same,minimal effective concentration,[2]; [12],43.8 µM
same,minimal effective concentration,[2]; read-out: endo.nma.24hr POD,63.5 µM
same,minimal effective concentration,[2]; read-out: endo.tc.24hrs POD,16.6 µM
O=S(=O)(O)Oc1cc(Cl)ccc1-c1ccccc1 [2-yl PCB 3 sulfate],activity at 0.01 µM,[1]; [3],97.5%
same,activity at 0.01 µM,[1]; [4],97.8%
same,activity at 0.01 µM,[1]; [5],134%
same,activity at 0.01 µM,[1]; [6],124%
same,activity at 0.1 µM,[1]; [3],93.9%
same,activity at 0.1 µM,[1]; [4],117%
same,activity at 0.1 µM,[1]; [5],102%
same,activity at 0.1 µM,[1]; [6],93.2%
same,activity at 1 µM,[1]; [3],91.4%
same,activity at 1 µM,[1]; [4],118%
same,activity at 1 µM,[1]; [5],90.6%
same,activity at 1 µM,[1]; [6],83.8%
same,activity at 10 µM,[1]; [3],83.6%
same,activity at 10 µM,[1]; [4],89.9%
same,activity at 10 µM,[1]; [5],60.9%
same,activity at 10 µM,[1]; [6],58.8%
same,activity at 100 µM,[1]; [3],106%
same,activity at 100 µM,[1]; [4],86.3%
same,activity at 100 µM,[1]; [5],92.2%
same,activity at 100 µM,[1]; [6],89%
same,minimal effective concentration,[1]; read-out: endo.mtl.18hr POD,100 µM
same,minimal effective concentration,[1]; read-out: endo.tlps.18hr POD,100 µM
same,minimal effective concentration,[1]; read-out: endo.tta.18hr POD,100 µM
same,minimal effective concentration,[1]; read-out: endo.ttl.18hr POD,100 µM
same,viability at 0.01 µM,[2]; [7],93%
same,activity at 0.01 µM,[2]; [8],93.3%
same,activity at 0.01 µM,[2]; [9],114%
same,activity at 0.01 µM,[2]; [10],103%
same,viability at 0.01 µM,[2]; [11],93%
same,viability at 0.1 µM,[2]; [7],97.1%
same,activity at 0.1 µM,[2]; [8],97%
same,activity at 0.1 µM,[2]; [9],101%
same,activity at 0.1 µM,[2]; [10],100%
same,viability at 0.1 µM,[2]; [11],97.1%
same,viability at 1 µM,[2]; [7],97.8%
same,activity at 1 µM,[2]; [8],98.5%
same,activity at 1 µM,[2]; [9],104%
same,activity at 1 µM,[2]; [10],99.6%
same,viability at 1 µM,[2]; [11],97.8%
same,viability at 10 µM,[2]; [7],97.1%
same,activity at 10 µM,[2]; [8],97.8%
same,activity at 10 µM,[2]; [9],118%
same,activity at 10 µM,[2]; [10],99.1%
same,viability at 10 µM,[2]; [11],97.2%
same,viability at 100 µM,[2]; [7],102%
same,activity at 100 µM,[2]; [8],102%
same,activity at 100 µM,[2]; [9],99.3%
same,activity at 100 µM,[2]; [10],96.5%
same,viability at 100 µM,[2]; [11],102%
same,minimal effective concentration,[2]; read-out: endo.cyto.24hr POD,100 µM
same,minimal effective concentration,[2]; read-out: endo.mito.24hr POD,100 µM
same,minimal effective concentration,[2]; [12],100 µM
same,minimal effective concentration,[2]; read-out: endo.nma.24hr POD,100 µM
same,minimal effective concentration,[2]; read-out: endo.tc.24hrs POD,100 µM
